In patent US8969363B2, “Heterocyclic compounds and uses thereof” (Infinity Pharmaceuticals, Inc., priority 2011, dated 2015):
Where two headings read alike, the source gives them in different places.

How the values were obtained:
PI3Kβ = experiment: PI3 Kinase HTRF assay, PI3Kβ; format: biochemical, human; settings: 10 μM PIP2, 10 μM ATP, read-out: PI3K β IC50
Excerpt: A PI3-Kinase HTRF® assay kit (cat No. 33-016) purchased from Millipore Corporation was used to screen compounds provided herein. This assay used specific, high affinity binding of the GRP1 pleckstrin homology (PH) domain to PIP3, the product of a Class 1A or 1B PI3 Kinase acting on its physiological substrate PIP2. During the detection phase of the assay, a complex was generated between the GST-tagged PH domain and biotinylated short chain PIP3. The biotinylated PIP3 and the GST-tagged PH domain recruited fluorophores (Streptavidin-Allophycocyanin and Europium-labeled anti-GST respectively) to form the fluorescence resonance energy transfer (FRET) architecture, generating a stable time-resolved FRET signal. The FRET complex was disrupted in a competitive manner by non-biotinylated PIP3, a product formed in the PI3 Kinase assay.
PI3 Kinase α, β, γ and δ activity was assayed using the PI3 Kinase HTRF® assay kit (catalogue No. 33-016) purchased from Millipore Corporation. […] Purified recombinant PI3K enzyme was used to catalyze the phosphorylation of phosphatidylinositol 4,5-bisphosphate (PIP2 at 10 μM) to phosphatidylinositol 3,4,5-trisphosphate (PIP3) in the presence of 10 μM ATP. The assay was carried out in 384-well format and detected using a Perkin Elmer EnVision Xcite Multilabel Reader. Emission ratios were converted into percent inhibitions and imported into GraphPad Prism software. […] IC50 values were determined using a nonlinear regression model available in GraphPad Prism 5. […]

Balb/c splenic B cells = experiment: B cell activation and proliferation assay (Alamar Blue); format: cell-based; settings: Mus musculus
Procedure: The ability of one or more subject compounds to inhibit B cell activation and proliferation is determined according to standard procedures known in the art. For example, an in vitro cellular proliferation assay is established that measures the metabolic activity of live cells. The assay is performed in a 96 well microtiter plate using Alamar Blue reduction. Balb/c splenic B cells are purified over a Ficoll-Paque™ PLUS gradient followed by magnetic cell separation using a MACS B cell Isolation Kit (Miletenyi). Cells are plated in 90 μl at 50,000 cells/well in B Cell Media (RPMI+10% FBS+Penn/Strep+50 μM bME+5 mM HEPES). A compound provided herein is diluted in B Cell Media and added in a 10 μl volume. Plates are incubated for 30 min at 37° C. and 5% CO2 (0.2% DMSO final concentration). A 50 μl B cell stimulation cocktail is then added containing either 10 μg/ml LPS or 5 μg/ml F(ab′)2 Donkey anti-mouse […] plus 2 ng/ml recombinant mouse IL4 in B Cell Media. Plates are incubated for 72 hours at 37° C. and 5% CO2. A volume of 15 μL of Alamar Blue reagent is added to each well and plates are incubated for 5 hours at 37° C. and 5% CO2. Alamar Blue fluoresce is read at 560Ex/590Em, and IC50 or EC50 values are calculated using GraphPad Prism 5.

[1] = 'Greater than 10 μM' and 'Greater than 1 μM to 10 μM'

Chain of PI3Kβ (Q8BTI9 whole entry, the tested form may be a part): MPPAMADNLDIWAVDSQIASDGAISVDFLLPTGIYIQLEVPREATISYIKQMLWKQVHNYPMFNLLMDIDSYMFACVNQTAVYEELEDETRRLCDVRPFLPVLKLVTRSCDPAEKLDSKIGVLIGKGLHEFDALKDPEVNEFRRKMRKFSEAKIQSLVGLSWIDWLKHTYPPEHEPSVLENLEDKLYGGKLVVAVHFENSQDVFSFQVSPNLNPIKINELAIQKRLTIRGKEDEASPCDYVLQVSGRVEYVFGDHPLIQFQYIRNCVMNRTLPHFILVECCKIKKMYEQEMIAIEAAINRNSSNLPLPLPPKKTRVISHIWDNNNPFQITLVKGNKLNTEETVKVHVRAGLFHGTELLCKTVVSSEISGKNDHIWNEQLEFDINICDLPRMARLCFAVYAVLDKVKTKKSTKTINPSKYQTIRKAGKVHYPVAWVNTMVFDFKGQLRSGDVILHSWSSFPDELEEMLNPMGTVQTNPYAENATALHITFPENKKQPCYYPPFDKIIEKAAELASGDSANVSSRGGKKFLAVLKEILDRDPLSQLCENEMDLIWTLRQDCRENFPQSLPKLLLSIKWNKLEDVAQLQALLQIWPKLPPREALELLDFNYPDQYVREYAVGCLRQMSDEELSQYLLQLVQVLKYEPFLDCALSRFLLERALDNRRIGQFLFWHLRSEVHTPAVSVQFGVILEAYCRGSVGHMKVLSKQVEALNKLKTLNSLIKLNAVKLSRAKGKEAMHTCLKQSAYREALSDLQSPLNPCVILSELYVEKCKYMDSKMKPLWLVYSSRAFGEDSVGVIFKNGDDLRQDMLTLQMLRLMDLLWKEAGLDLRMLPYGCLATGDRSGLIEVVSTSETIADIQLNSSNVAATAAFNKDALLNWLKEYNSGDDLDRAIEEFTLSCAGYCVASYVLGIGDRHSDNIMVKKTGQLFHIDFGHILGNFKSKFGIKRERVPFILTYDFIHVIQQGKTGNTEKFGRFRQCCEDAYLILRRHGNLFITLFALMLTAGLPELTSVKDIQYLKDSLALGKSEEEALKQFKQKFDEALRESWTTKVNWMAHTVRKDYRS

IC50 (PI3Kβ; [1]) [µM] | Structure (SMILES) | EC50 (Balb/c splenic B cells; 'Less than 100 nM') [µM] | other results
1 to 10 | Cc1cc(-c2cccc3nc([C@H](C)Nc4nc(N)nc5cccnc45)n(-c4ccccc4)c(=O)c23)ccn1 [Compound I-88] | < 0.1 | 
> 10 | C[C@H](Nc1ccn2nccc2n1)c1cc2cccc(Cl)c2c(=O)n1-c1ccccc1 [IV-6] |  | 
1 to 10 | C[C@H](Nc1ncnc2cccnc12)c1cc2cccc(-c3cnc(N)nc3)c2c(=O)n1-c1ccccc1 [Compound I-63] | < 0.1 | 
> 10 | C[C@H](Nc1nc(Cl)nc2cccnc12)c1cc2cccc(-c3cnn(C)c3)c2c(=O)n1-c1ccccc1 [Compound I-35] |  | 
1 to 10 | C[C@H](Nc1ccnc2ccnn12)c1cc2cccc(C(F)(F)F)c2c(=O)n1-c1cccc(F)c1 [III-11] | < 0.1 | 
1 to 10 | Cc1ccnc2cc(C(C)Nc3ncnc4cccnc34)n(-c3ccccc3)c(=O)c12 (centres unmarked) [Compound I-65] |  | 
> 10 | C[C@H](Nc1ncnc2cccnc12)c1cc2cccc(C(=O)O)c2c(=O)n1-c1ccccc1 [Compound I-62] |  | 
> 10 | C[C@H](Nc1nc(Cl)ns1)c1cc2cccc(Cl)c2c(=O)n1-c1ccccc1 [IV-27] |  | 
1 to 10 | C[C@H](Nc1nc(N)nc2cccnc12)c1cc2cccc(-c3cnc4ccccc4c3)c2c(=O)n1-c1ccccc1 [Compound I-82] | < 0.1 | 
> 10 | CNc1nc(N[C@@H](C)c2cc3cccc(-c4cnc(OC)nc4)c3c(=O)n2-c2ccccc2)c2ncccc2n1 [Compound I-97] | < 0.1 | 
> 10 | COc1ncc(-c2cccc3cc([C@H](C)Nc4nc(O)nc5cccnc45)n(-c4ccccc4)c(=O)c23)cn1 [Compound I-77] |  | 
1 to 10 | C[C@H](Nc1ncnc2ccnn12)c1cc2cccc(Cl)c2c(=O)n1-c1cccc(F)c1 [II-30] | < 0.1 | 
1 to 10 | COc1cncc(-c2cccc3cc([C@H](C)Nc4nc(N)nc5cccnc45)n(-c4ccccc4)c(=O)c23)c1 [Compound I-58] | < 0.1 | 
1 to 10 | C[C@H](Nc1ncnc2[nH]nc(C#N)c12)c1cc2cccc(Cl)c2c(=O)n1-c1ccccc1 [IV-11] | < 0.1 | 
> 10 | COc1ncc(-c2cccc3cc([C@H](C)Nc4nc(OC)nc5cccnc45)n(-c4ccccc4)c(=O)c23)cn1 [Compound I-72] |  | 
1 to 10 | Cc1cccc2cc([C@H](C)Nc3nc(N)nc4cccnc34)n(-c3cccc(F)c3)c(=O)c12 [Compound I-85] | < 0.1 | 
> 10 | C[C@H](Nc1ccnc2ccnn12)c1cc2scc(-c3cnn(C)c3)c2c(=O)n1-c1ccccc1 [II-21] |  | 
1 to 10 | C[C@H](Nc1cc(N)nc2ccnn12)c1cc2cccc(Cl)c2c(=O)n1-c1ccccc1 [II-49] | < 0.1 | 
> 10 | C[C@H](Nc1cc(Cl)ncc1C(N)=O)c1cc2cccc(Cl)c2c(=O)n1-c1ccccc1 [IV-21] |  | 
> 10 | C[C@H](Nc1nc(Cl)nc2cccnc12)c1cc2cccc(-c3cnn(C)c3)c2c(=O)n1C1CC1 [Compound I-39] |  | 
1 to 10 | C[C@H](Nc1nc(Cl)nc2scnc12)c1cc2cccc(C(F)(F)F)c2c(=O)n1-c1ccccc1 [III-24] |  | 
> 10 | C[C@H](Nc1ncnc2cnccc12)c1cc2cccc(Cl)c2c(=O)n1-c1ccccc1 [IV-5] |  | 
> 10 | C[C@H](Nc1ccnn2ccnc12)c1cc2scc(-c3cnn(C)c3)c2c(=O)n1-c1ccccc1 [II-23] |  | 
> 10 | C[C@H](Nc1cc(Cl)nn2ccnc12)c1cc2cccc(-c3cnn(C)c3)c2c(=O)n1-c1cccc(F)c1 [II-16] |  | 
> 10 | C[C@H](Nc1nc(O)nc2[nH]cnc12)c1cc2cccc(C(F)(F)F)c2c(=O)n1-c1cccc(F)c1 [III-48] |  | 
> 10 | COc1ncc(-c2cccc3cc([C@H](C)Nc4ccnc5ccnn45)n(-c4ccccc4)c(=O)c23)cn1 [II-47] |  | 
> 10 | CCOC(=O)c1cnc(N[C@@H](C)c2cc3cccc(-c4ccnc(OC)c4)c3c(=O)n2-c2ccccc2)nc1N [IV-25] |  | 
> 10 | C[C@H](Nc1nc(O)nc2cccnc12)c1cc2cccc(C(F)(F)F)c2c(=O)n1-c1cccc(F)c1 [III-47] |  | 

The remaining lines, values behind:

Structure (SMILES) | IC50 (PI3Kβ; [1]) [µM] | EC50 (Balb/c splenic B cells; 'Less than 100 nM') [µM] | other results
C[C@H](Nc1cc(N)ncc1C(N)=O)c1cc2cccc(Cl)c2c(=O)n1-c1ccccc1 [IV-24] |  |  | IC50 (PI3Kβ; 'Less than 100 nM'): < 0.1 µM
COc1ncc(-c2cccc3cc([C@H](C)Nc4cc(N)nc5ccnn45)n(-c4ccccc4)c(=O)c23)cn1 [II-50] | > 10 | < 0.1 | 
CNc1cccc2cc([C@H](C)Nc3nc(N)nc4cccnc34)n(-c3ccccc3)c(=O)c12 [Compound I-101] | > 10 | < 0.1 | 
Cc1cncc(-c2cccc3cc([C@H](C)Nc4nc(N)nc5cccnc45)n(-c4ccccc4)c(=O)c23)c1 [Compound I-75] | 1 to 10 | < 0.1 | 
C[C@H](Nc1nc(N)nc2[nH]cnc12)c1cc2cccc(C(F)(F)F)c2c(=O)n1-c1ccccc1 [III-17] |  | < 0.1 | IC50 (PI3Kβ; 'Less than 100 nM'): < 0.1 µM
COc1ncc(-c2cccc3cc([C@H](C)Nc4nc(N)nc5cccnc45)n(-c4cccc(F)c4)c(=O)c23)cn1 [Compound I-78] | > 10 | < 0.1 | 
CNc1nc(N[C@@H](C)c2cc3cccc(-c4cnc(C)nc4)c3c(=O)n2-c2ccccc2)c2ncccc2n1 [Compound I-98] | > 10 |  | EC50 (Balb/c splenic B cells; 1 μM to 100 nM): 0.1 to 1 µM
Cc1cc(-c2cccc3cc([C@H](C)Nc4nc(N)nc5cccnc45)n(-c4ccccc4)c(=O)c23)ccn1 [Compound I-81] | 1 to 10 | < 0.1 | 
C[C@H](Nc1ncnc2cccnc12)c1cc2ccc(F)c(Cl)c2c(=O)n1-c1ccccc1 [Compound I-16] |  | < 0.1 | 
COc1nc(N[C@@H](C)c2cc3cccc(Cl)c3c(=O)n2-c2ccccc2)c2ncccc2n1 [Compound I-71] | > 10 |  | 
C[C@H](Nc1nc(N)ncc1C(F)(F)F)c1cc2cccc(C(F)(F)F)c2c(=O)n1-c1ccccc1 [III-32] | 1 to 10 |  | 
C[C@H](Nc1ccnn2ccnc12)c1cc2cccc(Cl)c2c(=O)n1-c1ccccc1 [II-10] |  | < 0.1 | IC50 (PI3Kβ; 'Less than 100 nM'): < 0.1 µM
C[C@H](NCc1cccnc1N)c1cc2cccc(Cl)c2c(=O)n1-c1ccccc1 [IV-8] | > 10 |  | 
C[C@H](Nc1ncnc2cccnc12)c1cc2cccc(Cl)c2c(=O)n1C1CC1 [Compound I-23] |  | < 0.1 | IC50 (PI3Kβ; 'Less than 100 nM'): < 0.1 µM
C[C@H](Nc1ncnc2ccnn12)c1cc2cccc(C(F)(F)F)c2c(=O)n1-c1ccccc1 [III-21] | 1 to 10 |  | 
C[C@H](Nc1ncnc2cccnc12)c1cc2cccc(Cl)c2c(=O)n1-c1cccc(F)c1 [Compound I-20] |  | < 0.1 | 
C[C@H](Nc1cc(Cl)ncc1C#N)c1cc2cccc(Cl)c2c(=O)n1-c1ccccc1 [IV-23] | > 10 |  | 
C[C@H](Nc1nc(N)nc2cccnc12)c1cc2cccc(Cl)c2c(=O)n1-c1ccccc1 [Compound I-92] |  |  | IC50 (PI3Kβ; 'Less than 100 nM'): < 0.1 µM
C[C@@H](c1cc2cccc(Cl)c2c(=O)n1-c1ccccc1)n1c(=O)[nH]c2cnc(N)nc21 [IV-26] | > 10 |  | 
COc1cncc(-c2cccc3cc([C@H](C)Nc4ncnc5cccnc45)n(-c4ccccc4)c(=O)c23)c1 [Compound I-45] | > 10 |  | 
C[C@H](Nc1nccc2nccn12)c1cc2cccc(Cl)c2c(=O)n1-c1ccccc1 [IV-4] | > 10 |  | 
C[C@H](Nc1ncc(C(F)(F)F)c(N)n1)c1cc2cccc(Cl)c2c(CCN2CCOCC2)n1 [IV-10] | > 10 |  | 
C[C@H](Nc1ncnc2cccnc12)c1cc2cccc(Cl)c2c(=O)n1CCN1CCCC1 [Compound I-33] |  | < 0.1 | 
C[C@H](Nc1nc(Cl)nc2cccnc12)c1cc2cccc(-c3cnn(C)c3)c2c(=O)n1-c1cccc(F)c1 [Compound I-37] | > 10 |  | 
Cc1ncc(-c2cccc3cc([C@H](C)Nc4nc(N)nc5cccnc45)n(-c4ccccc4)c(=O)c23)s1 [Compound I-94] | 1 to 10 |  | 
COc1ccc(CNc2nc(N[C@@H](C)c3cc4cccc(-c5cnc(OC)nc5)c4c(=O)n3-c3ccccc3)c3ncccc3n2)cc1 [Compound I-93] | 1 to 10 |  | 
C[C@H](Nc1nc(N)nc2cccnc12)c1cc2cccc(-c3cnc4[nH]ccc4c3)c2c(=O)n1-c1ccccc1 [Compound I-83] |  | < 0.1 | 
